Results published in US5021562A, “Method for azide displacement of α-triflates of 1,5-lactones” (Monsanto Company, priority 1990, dated 1991).

Legend:
Assay type in all cases: biochemical
human α-mannosidases = assay: Inhibition of human α-mannosidases (overall statement, glycosidase panel)
From the text: (§1) The relative potencies of these compounds as fucosidase inhibitors may be understood by considering them as analogues of α-L-fucose; all three compounds have the correct chirality of the secondary hydroxyl groups - the minimum requirement for inhibition of α-fucosidase. […] All the compounds are weaker inhibitors of α-fucosidase than is deoxyfuconojirimycin, since they all lack a lipophilic methyl substituent with correct configuration.

human liver α-fucosidase = target: T1, human liver α-fucosidase (Homo sapiens, UniProt P04066); assay: Inhibition of human liver α-fucosidase
T1 construct: from tissue; host or cells: human liver
T1 sequence (P04066 32-466): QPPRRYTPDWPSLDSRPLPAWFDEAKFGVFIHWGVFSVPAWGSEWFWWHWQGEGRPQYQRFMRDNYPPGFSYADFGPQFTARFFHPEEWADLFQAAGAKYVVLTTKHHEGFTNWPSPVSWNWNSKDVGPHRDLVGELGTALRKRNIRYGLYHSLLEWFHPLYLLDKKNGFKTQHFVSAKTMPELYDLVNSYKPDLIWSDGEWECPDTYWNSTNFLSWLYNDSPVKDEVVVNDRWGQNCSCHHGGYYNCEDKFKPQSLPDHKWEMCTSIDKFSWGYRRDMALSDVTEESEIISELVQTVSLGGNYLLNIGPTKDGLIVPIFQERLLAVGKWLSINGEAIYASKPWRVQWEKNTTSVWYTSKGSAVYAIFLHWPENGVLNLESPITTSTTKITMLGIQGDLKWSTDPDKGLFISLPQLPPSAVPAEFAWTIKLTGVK
Procedure: % Inhibition of human liver α-fucosidase and α-mannosidase
catalysed hydrolysis of 4-umbelliferyl pyrranosides at
1 mM concentration of inhibitor

β-mannosidase = assay: Inhibition of human liver β-mannosidase (glycosidase panel)
From the text: as §1

inhibition of α-mannosidases (in words) (human α-mannosidases)	inhibition of α-fucosidase (in words) (human liver α-fucosidase)	Compound	inhibition of β-mannosidase (in words) (β-mannosidase)
did not inhibit any α-mannosidase	powerful inhibitors of α-fucosidase	OC[C@@H]1N[C@H](CO)[C@@H](O)[C@@H](O)[C@@H]1O [6-epi-HMJ, 2,6-dideoxy-2,6-imino-L-glycero-D-talo-heptitol]	–
very similar	only a weak inhibitor	OC[C@H]1N[C@H](CO)[C@@H](O)C(O)[C@@H]1O (stereo partly drawn) [α-HMJ, 2,6-Dideoxy-2,6-imino-D-glycero-D-talo-heptitol]	Neither compound inhibited β-mannosidase

Compound	inhibition of α-mannosidases (in words) (human α-mannosidases)	inhibition of α-fucosidase (in words) (human liver α-fucosidase)	inhibition of β-mannosidase (in words) (β-mannosidase)
OC[C@H]1NC[C@@H](O)[C@@H](O)[C@@H]1O [DMJ, reference compound]	very similar	powerful inhibitors of α-fucosidase	Neither compound inhibited β-mannosidase
